Data reported in ChEMBL document CHEMBL1201862, “PubChem BioAssay data set” (2004).
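Tested at 5 concentrations; 48 h exposure; 96-well plates; endpoints linearly interpolated, else capped at highest concentration. GI50 = concentration required for 50% inhibition of growth.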 The source made the active and inactive calls. No stated cut-off is given here; in the data, active = GI50 up to about 1.1 µM and inactive = higher.

Key:
Test in all cases: DTP human tumour cell line panel, 48 h
SK-MEL-5 = tested on: SK-MEL-5
786-0 = tested on: 786-0
OVCAR-4 = tested on: OVCAR-4
RXF 393 = tested on: RXF 393
UACC-257 = tested on: UACC-257
MCF7 = tested on: MCF7
SK-MEL-28 = tested on: SK-MEL-28
MDA-MB-435 = tested on: MDA-MB-435
OVCAR-3 = tested on: OVCAR-3
SNB-19 = tested on: SNB-19
NCI/ADR-RES = tested on: NCI/ADR-RES
OVCAR-5 = tested on: OVCAR-5
UACC-62 = tested on: UACC-62
IGROV-1 = tested on: IGROV-1
NCI-H522 = tested on: NCI-H522
NCI-H23 = tested on: NCI-H23
RPMI-8226 = tested on: RPMI-8226
UO-31 = tested on: UO-31
SK-OV-3 = tested on: SK-OV-3
SR = tested on: SR

Measured: GI50

NNC(=O)CS(=O)(=O)Nc1ncccn1
inactive: SK-MEL-5 > 100 µM | 786-0 > 100 µM | OVCAR-4 > 100 µM | RXF 393 > 100 µM | UACC-257 > 100 µM | MCF7 > 100 µM | SK-MEL-28 > 100 µM | MDA-MB-435 > 100 µM | OVCAR-3 > 100 µM | SNB-19 > 100 µM | NCI/ADR-RES > 100 µM | OVCAR-5 > 100 µM | UACC-62 > 100 µM | IGROV-1 > 100 µM | NCI-H522 > 100 µM | NCI-H23 > 100 µM | RPMI-8226 > 100 µM | UO-31 > 100 µM | SK-OV-3 > 100 µM

C=C(C)[C@H]1C2=CC(C(=O)OC)=C(C[C@H](C(=C)C)[C@@H](O)[C@@H](O)C3=C[C@H]1OC3=O)O2
inactive: SK-MEL-5 > 100 µM | 786-0 > 100 µM | OVCAR-4 > 100 µM | RXF 393 > 100 µM | UACC-257 > 100 µM | MCF7 > 100 µM | MDA-MB-435 > 100 µM | OVCAR-3 > 100 µM | SNB-19 > 100 µM | NCI/ADR-RES > 100 µM | OVCAR-5 > 100 µM | UACC-62 > 100 µM | IGROV-1 80.2 µM | NCI-H522 > 100 µM | NCI-H23 > 100 µM | RPMI-8226 > 100 µM | UO-31 18 µM | SK-OV-3 > 100 µM

CCCCCC(C)C[C@H]1CO[C@H](c2ccc[nH]2)N[C@H]1C(=O)OC (some centres undefined)
inactive: SK-MEL-5 > 100 µM | 786-0 > 100 µM | OVCAR-4 > 100 µM | RXF 393 > 100 µM | UACC-257 > 100 µM | MCF7 > 100 µM | SK-MEL-28 > 100 µM | MDA-MB-435 > 100 µM | OVCAR-3 > 100 µM | SNB-19 > 100 µM | NCI/ADR-RES > 100 µM | OVCAR-5 > 100 µM | UACC-62 > 100 µM | IGROV-1 > 100 µM | NCI-H522 > 100 µM | NCI-H23 > 100 µM | RPMI-8226 > 100 µM | SK-OV-3 > 100 µM

COC(=O)/C=C1/N=C(N(C)/N=C/c2ccccc2)NC1=O
inactive: SK-MEL-5 > 100 µM | 786-0 > 100 µM | OVCAR-4 > 100 µM | RXF 393 > 100 µM | UACC-257 > 100 µM | MCF7 > 100 µM | SK-MEL-28 > 100 µM | OVCAR-3 > 100 µM | SNB-19 > 100 µM | NCI/ADR-RES > 100 µM | OVCAR-5 > 100 µM | UACC-62 > 100 µM | IGROV-1 > 100 µM | NCI-H522 > 100 µM | NCI-H23 > 100 µM | UO-31 > 100 µM | SR > 100 µM | SK-OV-3 > 100 µM

CN(C)c1ccc(/C=N/NC2=N/C(=C\c3ccco3)C(=O)N2)cc1
inactive: SK-MEL-5 > 100 µM | 786-0 > 100 µM | RXF 393 > 100 µM | UACC-257 > 100 µM | SK-MEL-28 > 100 µM | MDA-MB-435 > 100 µM | OVCAR-3 > 100 µM | SNB-19 > 100 µM | NCI/ADR-RES > 100 µM | OVCAR-5 > 100 µM | UACC-62 > 100 µM | IGROV-1 > 100 µM | NCI-H522 > 100 µM | NCI-H23 > 100 µM | RPMI-8226 > 100 µM | UO-31 > 100 µM | SK-OV-3 > 100 µM

COC(=O)C1=C2SCc3cccc(c3)CSC3=C(C(=O)OC)SC(=C(S2)S1)S3
inactive: SK-MEL-5 > 100 µM | 786-0 > 100 µM | OVCAR-4 > 100 µM | RXF 393 > 100 µM | UACC-257 > 100 µM | MCF7 > 100 µM | SK-MEL-28 > 100 µM | MDA-MB-435 > 100 µM | OVCAR-3 > 100 µM | SNB-19 > 100 µM | UACC-62 > 100 µM | RPMI-8226 > 100 µM | UO-31 > 100 µM | SK-OV-3 > 100 µM

Clc1ccc(-c2nn3c(C45CC6CC(CC(C6)C4)C5)nnc3s2)cc1
inactive: SK-MEL-5 > 100 µM | 786-0 35.7 µM | OVCAR-4 34.4 µM | RXF 393 > 100 µM | SK-MEL-28 > 100 µM | MDA-MB-435 > 100 µM | OVCAR-3 39.1 µM | SNB-19 > 100 µM | NCI/ADR-RES > 100 µM | OVCAR-5 > 100 µM | UACC-62 > 100 µM | IGROV-1 > 100 µM | NCI-H522 > 100 µM | NCI-H23 > 100 µM | RPMI-8226 > 100 µM | UO-31 > 100 µM | SR > 100 µM | SK-OV-3 > 100 µM

O=C1c2cn[nH]c2N=C(Nc2ccccc2)C1/N=C/c1ccc([N+](=O)[O-])cc1 (centres undefined)
inactive: SK-MEL-5 > 10 µM | 786-0 > 10 µM | OVCAR-4 > 10 µM | UACC-257 > 10 µM | MCF7 > 10 µM | MDA-MB-435 > 10 µM | OVCAR-3 > 10 µM | SNB-19 > 10 µM | OVCAR-5 > 10 µM | NCI-H522 > 10 µM | NCI-H23 > 10 µM | UO-31 > 10 µM | SR > 10 µM

CC1C(c2ccccc2O)c2cc3c(cc2OC1N1CCOCC1)OCO3 (centres undefined)
inactive: SK-MEL-5 22.1 µM | 786-0 34.7 µM | RXF 393 22.6 µM | UACC-257 19.6 µM | MCF7 33 µM | SK-MEL-28 40.6 µM | MDA-MB-435 25.4 µM | OVCAR-3 22.6 µM | SNB-19 40.7 µM | OVCAR-5 47.5 µM | UACC-62 26.2 µM | IGROV-1 27.7 µM | NCI-H522 12.4 µM | NCI-H23 32.4 µM | RPMI-8226 15.5 µM | UO-31 26.7 µM | SR 12.5 µM | SK-OV-3 40.1 µM

CC1=CCS(=O)(=O)C1C(O)C1=C(C)CCCC1(C)C (centres undefined)
inactive: SK-MEL-5 44.4 µM | 786-0 > 100 µM | OVCAR-4 84.5 µM | RXF 393 > 100 µM | UACC-257 58.9 µM | MCF7 50.8 µM | SK-MEL-28 > 100 µM | MDA-MB-435 63.4 µM | OVCAR-3 99.8 µM | SNB-19 > 100 µM | NCI/ADR-RES 78.7 µM | OVCAR-5 > 100 µM | UACC-62 87.1 µM | IGROV-1 > 100 µM | NCI-H522 58.6 µM | NCI-H23 > 100 µM | RPMI-8226 14.3 µM | UO-31 38.3 µM | SK-OV-3 > 100 µM

O=c1oc2c(O)c(O)c(O)c3c(=O)oc4c(O)c(O)cc1c4c23 [FLAVELLAGIC ACID]
inactive: SK-MEL-5 > 100 µM | 786-0 62.8 µM | OVCAR-4 16.2 µM | RXF 393 > 100 µM | UACC-257 > 100 µM | SK-MEL-28 > 100 µM | OVCAR-3 61 µM | SNB-19 > 100 µM | OVCAR-5 > 100 µM | UACC-62 57.3 µM | IGROV-1 > 100 µM | NCI-H522 46.1 µM | NCI-H23 > 100 µM | RPMI-8226 > 100 µM | UO-31 38.4 µM | SR > 100 µM | SK-OV-3 > 100 µM
